Test results: patent publication US8809356B2, “Inhibitors of NEDD8-activating enzyme” (Millennium Pharmaceuticals, Inc., priority 2011, dated 2014)

Experiments:
[1] = Pharmacokinetic parameters (plasma AUC) after single subcutaneous administration in HCT116 xenograft mice; format: in vivo; conditions: I-216 at 10 mg/kg, female Ncr nude mice bearing HCT116 tumor xenografts
NAE = biological target: T1, NAE (Homo sapiens, UniProt Q8TBC4); experiment: In vivo Tumor Pharmacodynamic Model (neddylated cullins in HCT116 tumor xenografts); design: species or system female Ncr nude mice; conditions: expected from the pharmacodynamic and pharmacokinetic figures (FIGS. 1-3)
T1 construct: endogenous in cells; host or cells: HCT116 (ATCC CCL-247) subcutaneous tumour xenografts in female Ncr nude mice
T1 sequence (Q8TBC4 1-463): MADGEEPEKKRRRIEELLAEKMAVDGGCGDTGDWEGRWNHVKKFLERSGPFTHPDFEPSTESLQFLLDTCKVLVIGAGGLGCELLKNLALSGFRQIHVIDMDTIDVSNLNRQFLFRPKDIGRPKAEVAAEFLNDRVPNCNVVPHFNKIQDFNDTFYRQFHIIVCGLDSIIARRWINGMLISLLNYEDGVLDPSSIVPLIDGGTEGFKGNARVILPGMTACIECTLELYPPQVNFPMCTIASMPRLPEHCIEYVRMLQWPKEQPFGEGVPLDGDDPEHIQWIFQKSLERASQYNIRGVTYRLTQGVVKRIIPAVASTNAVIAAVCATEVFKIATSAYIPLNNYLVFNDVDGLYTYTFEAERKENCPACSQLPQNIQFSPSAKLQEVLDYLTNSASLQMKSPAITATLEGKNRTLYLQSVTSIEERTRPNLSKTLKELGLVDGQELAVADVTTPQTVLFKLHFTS
T1 sequence (Q13564 1-534 partner): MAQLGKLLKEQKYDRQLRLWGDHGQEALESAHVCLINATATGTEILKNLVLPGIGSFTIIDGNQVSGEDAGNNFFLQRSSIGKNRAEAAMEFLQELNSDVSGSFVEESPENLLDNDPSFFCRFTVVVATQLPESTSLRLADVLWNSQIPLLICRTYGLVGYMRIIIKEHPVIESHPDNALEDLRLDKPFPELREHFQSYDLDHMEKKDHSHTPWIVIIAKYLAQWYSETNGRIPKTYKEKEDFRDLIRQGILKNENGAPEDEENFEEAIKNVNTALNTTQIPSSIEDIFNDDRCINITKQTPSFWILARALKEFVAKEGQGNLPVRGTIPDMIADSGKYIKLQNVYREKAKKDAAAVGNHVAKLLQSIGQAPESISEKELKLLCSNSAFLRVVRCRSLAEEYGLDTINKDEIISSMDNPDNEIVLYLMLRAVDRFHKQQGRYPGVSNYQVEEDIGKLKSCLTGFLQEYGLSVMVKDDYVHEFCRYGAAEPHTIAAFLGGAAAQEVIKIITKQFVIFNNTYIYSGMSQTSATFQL
Method: HCT116 tumor cells (2×10^6) (ATCC #CCL-247) in 100 μL phosphate buffered saline were aseptically injected into the subcutaneous space in the right dorsal flank of female Ncr nude mice (age 5-8 weeks, Charles River) using a 26-gauge needle. Beginning on day 7 after inoculation, tumors were measured twice weekly using a vernier caliper. Tumor volumes were calculated using standard procedures (0.5×(length×width^2)). When the tumors reached a volume of approximately 3-700 mm^3 mice were randomized into groups and injected subcutaneously with compound inhibitor (200 μL) at various doses. Tumors were harvested and crushed in Covaris bags and then transferred to glass tubes on dry ice for sonication in the Covaris E200. […] Supernatants were transferred to new tubes and protein concentrations were determined using the Pierce bicinchoninic acid (BCA) reagents and protein standards. […]
For quantitative analysis of neddylated cullins the procedure was as follows: 20 μg of tumor lysate with lithium dodecyl sulfate (LDS) loading buffer and sample reducing agent (Invitrogen NP0007 and NP0004) was loaded onto 4-12% bis-tris gels, […], 10 well gels (Invitrogen NP0315Box). […] Quantitation of signals on Western blots was performed with the Odyssey software.

With `CO[C@H]1Cc2cc(Cl)ccc2[C@H]1Nc1cc(O[C@@H]2C[C@@H](COS(N)(=O)=O)[C@@H](O)C2)ncn1` [I-216, {(1S,2S,4R)-4-[(6-{[(1R,2S)-5-chloro-2-methoxy-2,3-dihydro-1H-inden-1-yl]amino}pyrimidin-4-yl)oxy]-2-hydroxycyclopentyl}methyl sulfamate] the “plasma AUC compared with I-115 at 30 mg/kg” value [1] was “comparable to that observed for I-115 administered at 30 mg/kg”, the “plasma AUC compared with I-216 at 30 mg/kg” value [1] was “approximately half the AUC observed for I-216 administered at 30 mg/kg” and the “potency as inhibitor of NAE relative to I-115” value (NAE) was 2- to 3 fold.
